According to BindingDB's records for doi:10.1016/j.bmcl.2004.08.063 (Abbott Laboratories, 2004):
pKi: −log10 of the molar value.

Experiments:
[1] = target: T1, Tyrosine-protein phosphatase non-receptor type 2 (Homo sapiens, UniProt P17706); assay: PTP1B and TCPTP Inhibition Assay; conditions: pH 7.5; 22 °C
T1 sequence (P17706 whole entry): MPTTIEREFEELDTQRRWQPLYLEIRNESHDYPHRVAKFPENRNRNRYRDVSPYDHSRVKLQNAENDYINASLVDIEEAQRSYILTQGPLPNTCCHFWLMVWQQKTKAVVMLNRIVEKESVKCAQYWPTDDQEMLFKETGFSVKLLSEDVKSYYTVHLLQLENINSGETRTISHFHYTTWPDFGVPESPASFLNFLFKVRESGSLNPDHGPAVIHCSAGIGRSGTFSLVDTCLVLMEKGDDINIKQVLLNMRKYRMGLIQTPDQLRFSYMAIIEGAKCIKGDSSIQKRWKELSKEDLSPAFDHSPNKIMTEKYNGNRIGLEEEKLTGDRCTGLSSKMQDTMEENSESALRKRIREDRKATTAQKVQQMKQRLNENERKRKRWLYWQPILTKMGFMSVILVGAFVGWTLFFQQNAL
Procedure: (§1) For each concentration of test compound or DMSO control, the initial rates were used to fit the rectangular hyperbola of Michaelis-Menten by nonlinear regression analysis. The ratio of the apparent Km/Vmax vs inhibitor concentration was plotted, and the Ki was calculated by linear regression to be the negative X-intercept.

[2] = target: T2, Tyrosine-protein phosphatase non-receptor type 1 [1-298] (Homo sapiens, UniProt P18031); assay: PTP1B and TCPTP Inhibition Assay; conditions: pH 7.5; 22 °C
T2 construct: 1-298
T2 sequence (P18031 whole entry): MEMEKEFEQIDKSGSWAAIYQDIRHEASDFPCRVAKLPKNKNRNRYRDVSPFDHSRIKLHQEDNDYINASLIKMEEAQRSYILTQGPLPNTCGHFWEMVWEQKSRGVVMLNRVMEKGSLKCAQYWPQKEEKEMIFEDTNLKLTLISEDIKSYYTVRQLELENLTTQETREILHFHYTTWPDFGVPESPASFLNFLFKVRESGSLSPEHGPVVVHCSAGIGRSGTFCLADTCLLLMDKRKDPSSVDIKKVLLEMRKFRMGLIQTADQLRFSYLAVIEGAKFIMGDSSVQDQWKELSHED
Procedure: as §1

A pKi [1] of less than 4.52 was found for `COC(=O)c1c(O)cccc1OC/C=C/c1cccc(-c2onc(C(=O)O)c2N)c1` [4-amino-5-{3-[(1E)-3-[3-hydroxy-2-(methoxycarbonyl)phenoxy]prop-1-en-1-yl]phenyl}-1,2-oxazole-3-carboxylic acid] in this work.

A pKi [2] of 4.64 was found for `COC(=O)c1c(O)cccc1OCC1CC1c1cccc(-c2cc(C(=O)O)no2)c1` (configuration not stated) [5-(3-{2-[3-hydroxy-2-(methoxycarbonyl)phenoxymethyl]cyclopropyl}phenyl)-1,2-oxazole-3-carboxylic acid] in this work.
